The record followed here is PubChem BioAssay AID449732 (Southern Research Specialized Biocontainment Screening …, 2010).

The assay relates to RSV titer reduction in cells, log virus titer. The assay can be described thus: antiviral activity against RSV, titer decrease, cell-based, titer reduction, selected compounds (AID 449732). The settings on record: active compounds read high.
On to `CCOC(=O)C1=C(NC(=S)NC(=O)c2ccccc2)c2ccccc2CC1C(C)C` (stereo unspecified), for which the max log titer decrease is 9.13.
For `COc1cccc(C(=O)N(Cc2nc(-c3cccc(C)c3)no2)C(C)C)c1OC` the value was 8.03; for `CCOc1ccc(CNC(=O)c2cc3oc4ccccc4c3n2C)cc1`, 8.58.
For `O=C(NCc1ccco1)c1ccc(Cn2c(=O)c3ccccc3n(Cc3ccc(Cl)cc3)c2=O)cc1` the value was 8.58.
With `c1ccc(N2CCN(Cc3nc4ccccc4[nH]3)CC2)nc1` the figure was 4.6; with `Cc1ccc(-c2nc3cccnc3s2)cc1NS(=O)(=O)c1cccs1`, 9.13; with `CC1Cc2ccccc2N1S(=O)(=O)c1cccc(C(=O)N2CCN(c3ncccn3)CC2)c1` (stereo unspecified), 8.6.
With `COc1ccc(C(c2c(NC(=O)c3ccco3)sc(C)c2C)N2CCOCC2)cc1OC` (stereo unspecified), the max log titer decrease is 8.58.
Consider `CSc1nnc(Cn2c(=O)sc3ccccc32)n1-c1cccc(Cl)c1`, for which the max log titer decrease was 5.47.
As for `O=C(CCCOc1ccc(Cl)cc1Cl)Nc1ccccc1C(=O)O`, the max log titer decrease was 8.03.
`O=C(O)C1CC=CCC1C(=O)Nc1ccc(S(=O)(=O)N2CCCc3ccccc32)cc1` (stereo unspecified): the max log titer decrease is 8.58.
For `Cc1ccc2c(c1)cc(C(=O)NCc1ccccc1)n2C` the value was 8.03; for `CSc1ncccc1C(=O)Nc1nc(C(C)(C)C)cs1`, 5.6.
With `Cc1cccc(-n2c(SCC(=O)Nc3ncc(Cl)cc3Cl)nc3ccccc32)c1` the figure was 8.6; with `CCOc1ccc2nc(NC(=O)C(CCSC)NS(=O)(=O)c3cccs3)sc2c1` (stereo unspecified), 8.58.
With `COc1ccccc1NCC(=O)Nc1cc(S(=O)(=O)N2CCOCC2)ccc1N1CCOCC1` the figure was 4.6; with `COc1ccc(N(CC(=O)NC2CCCCC2)C(=O)c2ccc(C)s2)c(OC)c1`, 5.13; with `c1ccc(-c2nn3c(Cn4cnc5ccccc54)nnc3s2)cc1`, 8.58.
For `COc1ccc(C(=O)Nc2nc3c(s2)CCCC3)cc1S(=O)(=O)N1CCCc2ccccc21`, the max log titer decrease was 8.6.
On to `O=C(NC(=S)Nc1ccccc1C(=O)O)c1ccc(-c2ccc(Br)cc2)o1`, for which the max log titer decrease is 8.03.
With `CCc1nc(SCC(=O)N2c3ccccc3CC2C)c2c(C)c(C)sc2n1` (stereo unspecified) the figure was 9.13; with `CCOC(=O)c1ccc2[nH]c3c(c2c1)CN(C)CC3`, 9.13.
For `O=[N+]([O-])c1ccccc1S(=O)(=O)Nc1cccc(-c2ccc(N3CCCC3)nn2)c1` the value was 9.13; for `Cc1sc2nc(C3CC3)nc(SCC(=O)N3c4ccccc4CC3C)c2c1C` (stereo unspecified), 9.13; for `CC(C)(C)C(=O)Nc1sc(-c2ccccc2)cc1C(=O)O`, 5.66.
Regarding `COc1ccccc1CNC(=O)C1CCN(S(=O)(=O)c2cccc3nonc23)CC1`, the max log titer decrease was 8.58.
With `Cc1ccc(-n2c(SCC(=O)Nc3ncc(Cl)cc3Cl)nc3ccccc32)cc1`, the max log titer decrease is 8.6.
With `C#CCn1c(S(=O)(=O)Cc2ccc(F)cc2)nc(-c2ccccc2)c1-c1ccccc1` the figure was 3.37; with `O=C(O)c1cccnc1Nc1ccc(Cl)cc1`, 9.13; with `COC(=O)C1=C(C)N(Cc2ccccc2)C(=O)NC1c1ccccc1` (stereo unspecified), 9.13.
`CCN(c1ccccc1)S(=O)(=O)c1ccc(Cl)c(NC(=O)CSc2n[nH]c(N)n2)c1`: the max log titer decrease was 8.6.
For `CCOC(=O)c1c(-c2cccc(C)c2)csc1NC(=O)c1c(-c2ccccc2)noc1C` the value was 8.03; for `COC(=O)c1ccc(NC2c3ncccc3C(=O)N2Cc2cccs2)cc1` (stereo unspecified), 5.08; for `COc1cccc(CNC(=O)c2cc3oc4ccccc4c3n2C)c1OC`, 8.58.
Turning to `Cc1ccc(OCCn2c(C3CC(=O)N(Cc4ccccc4)C3)nc3ccccc32)cc1` (stereo unspecified), the max log titer decrease is 8.6.
With `O=S(=O)(c1cccc(-c2csc(-c3ccccc3)n2)c1)N1CCOCC1` the figure was 8.58; with `Cc1ccc(NC(=O)C2CCCN2S(=O)(=O)c2cccc3cccnc23)c(C)c1` (stereo unspecified), 8.58; with `O=C(CCNC(=O)c1ccc(Br)cc1)NC1CCCc2ccccc21` (stereo unspecified), 8.6.
With `Cc1nc2ccccc2nc1Nc1cccc(Cl)c1` the figure was 8.03; with `Cn1c(C(=O)NCc2ccccc2)cc2oc3ccccc3c21`, 8.58; with `Cc1ccc(CSCC(=O)Nc2ccccc2C(=O)O)cc1`, 8.03.
For `COCCCNC(=O)c1ccc(Cn2c(=O)c3ccccc3n(Cc3ccc(C)cc3)c2=O)cc1` the value was 8.58.
Consider `Cc1cccc(NC(=O)CSc2nc3ccccc3nc2N2CCCCC2)c1`, for which the max log titer decrease was 9.13.
In the case of `CN(C)C(=O)COC(=O)c1ccccc1Nc1ccc(SC(F)F)cc1`, the max log titer decrease was 8.6.
For `Cc1c(NC(=O)COC(=O)c2cc(-c3ccc(-c4ccccc4)cc3)nc3ccccc23)c(=O)n(-c2ccccc2)n1C` the value was 8.6; for `O=C(CCNC(=O)c1ccc(Cl)cc1)NC1CCCc2ccccc21` (stereo unspecified), 8.6; for `CCOC(=O)c1ccc(NC(=S)N2CCSC2c2ccc(Br)cc2)cc1` (stereo unspecified), 8.03.
For the molecule `O=C(Nc1ccc(N2CCCCC2)c(Cl)c1)c1cccnc1`, the max log titer decrease is 9.13.
For `CCCC(c1nnnn1CC(=O)OCC)N(Cc1cc2c(C)cc(C)cc2[nH]c1=O)C1CCCC1` (stereo unspecified) the value was 9.13.
For `c1csc(-c2nn3c(Cn4cnc5ccccc54)nnc3s2)c1` the value was 5.14; for `O=C(c1cc2nc(-c3ccccc3)cc(-c3ccccc3)n2n1)N1CCC2(CC1)OCCO2`, 8.03.
